{"source": "patent US8889919B2", "about": "“Cyclic compound, process for production of the cyclic compound, radiation-sensitive composition, and method for formation of resist pattern” (Mitsubishi Gas Chemical Company, Inc., priority 2009, dated 2014)", "experiment": "Solubility of compound in safety solvent", "assay_type": "physicochemical", "details": "for Solubility in CHN: solvent cyclohexanone (CHN); for Solubility in PGME: solvent propylene glycol monomethyl ether (PGME)", "procedure": "(1) Solubility of Compound in Safety Solvent\nThe compounds obtained in Synthesis Examples 1 to 6 and Synthesis 1 to 4 were evaluated for the solubility in propylene glycol monomethyl ether (PGME) and cyclohexanone (CHN).\nB: 1.0 wt %≦dissolved amount<4.0 wt %\nC: dissolved amount<1.0 wt %", "data": [{"compound": "Oc1cc(O)c2cc1C(c1ccc(-c3ccccc3)cc1)c1cc(c(O)cc1O)C(c1ccc(-c3ccccc3)cc1)c1cc(c(O)cc1O)C(c1ccc(-c3ccccc3)cc1)c1cc(c(O)cc1O)C2c1ccc(-c2ccccc2)cc1", "note": "(centres unmarked) [CR-3A]", "values": [{"measurement": "Solubility in CHN", "result": "A (4.0 wt %≦amount)"}, {"measurement": "Solubility in PGME", "result": "C (dissolved amount<1.0 wt %)"}]}, {"compound": "CC(C)c1ccc(C2c3cc(c(O)cc3O)C(c3ccc(C(C)C)cc3)c3cc(c(O)cc3O)C(c3ccc(C(C)C)cc3)c3cc(c(O)cc3O)C(c3ccc(C(C)C)cc3)c3cc2c(O)cc3O)cc1", "note": "(centres unmarked) [CR-1A]", "values": [{"measurement": "Solubility in CHN", "result": "A (4.0 wt %≦amount)"}, {"measurement": "Solubility in PGME", "result": "B (1.0 wt %≦dissolved amount<4.0 wt %)"}]}, {"compound": "Oc1cc(O)c2cc1C(c1ccc(C3CCCCC3)cc1)c1cc(c(O)cc1O)C(c1ccc(C3CCCCC3)cc1)c1cc(c(O)cc1O)C(c1ccc(C3CCCCC3)cc1)c1cc(c(O)cc1O)C2c1ccc(C2CCCCC2)cc1", "note": "(centres unmarked) [CR-4A]", "values": [{"measurement": "Solubility in CHN", "result": "A (4.0 wt %≦amount)"}, {"measurement": "Solubility in PGME", "result": "B (1.0 wt %≦dissolved amount<4.0 wt %)"}]}, {"compound": "CC(C)Cc1ccc(C2c3cc(c(O)cc3O)C(c3ccc(CC(C)C)cc3)c3cc(c(O)cc3O)C(c3ccc(CC(C)C)cc3)c3cc(c(O)cc3O)C(c3ccc(CC(C)C)cc3)c3cc2c(O)cc3O)cc1", "note": "(centres unmarked) [CR-2A]", "values": [{"measurement": "Solubility in CHN", "result": "B (1.0 wt %≦dissolved amount<4.0 wt %)"}, {"measurement": "Solubility in PGME", "result": "C (dissolved amount<1.0 wt %)"}]}]}
